Laboratory results as given in US12655394B2, “Ovarian cancer organoid culture” (MAX-PLANCK-GESELLSCHAFT ZUR FÖRDERUNG DER WISSENSCHAFTEN …, priority 2018, dated 2026).
Entries after “also recorded” stand apart in the source; their conditions may differ.

B1: Wnt 3a: Wnt protein, e.g. human Wnt 3a (RefSeq NP_149122) (protein, UniProt P56704 19-352, looked up)
Protein Wnt-3a: SYPIWWSLAVGPQYSSLGSQPILCASIPGLVPKQLRFCRNYVEIMPSVAEGIKIGIQECQHQFRGRRWNCTTVHDSLAIFGPVLDKATRESAFVHAIASAGVAFAVTRSCAEGTAAICGCSSRHQGSPGKGWKWGGCSEDIEFGGMVSREFADARENRPDARSAMNRHNNEAGRQAIASHMHLKCKCHGLSGSCEVKTCWWSQPDFRAIGDFLKDKYDSASEMVVEKHRESRGWVETLRPRYTYFKVPTERDLVYYEASPNFCEPNPETGSFGTRDRTCNVSSHGIDGCDLLCCGRGHNARAERRREKCRCVFHWCCYVSCQECTRVYDVHTCK

Assays:
[1] = system: organoid cell lines ORG1 and ORG2; assay: Carboplatin treatment of organoid cancer lines, cell viability by luminescence (Cell Titer Glow 3D); type: cell-based, human; conditions: patient-derived HGSC organoid lines, triplicates, FIG. 5
Experimental: Cell vialiability (y axis) was determined proportional to the strength of luminiscence signal (Cell Titer® Glow 3D Promega). […] Immunofluorescence analysis of the key structural and functional biomarkers confirmed that organoids match native tumor tissue in phenotype, e.g. PAX8 confirming Mullerean lineage, EpCAM, p53 and p16 (FIG. 4). All tested organoid cultures were matched in phenotype to the fragment of native tumor processed and stained in standard procedure which was used for clinical diagnosis. Ovarian cancer cancer organoids mostly lack central cavities in contrast to fallopian tube organoids which are built of polarized epithelial monolayers. This is expected as histological atypia and stratification are present already in the early stages of the carcinogenesis in the fallopian tube (Shaw et al 2009, Modern Pathology 22, 1135-1138). Panel sequencing of paired organoid culture and tissue confirmed that the tested organoids recapitulate cancer tissue composition also on the genomic level. Importantly cultures can be expanded to multi-well format to enable high throughput experimental set up.

[2] = system: ovarian cancer stem cells; assay: Establishment of ovarian cancer organoid lines with exogenous Wnt 3a supplementation; type: cell-based, human; conditions: all established lines grew in Wnt3a-negative media
Experimental: • Adv. +++: Advanced F12 Medium+HEPES (6 ml)+Glutamax (5 ml)+5% fetal calf serum (FCS) • Adv. ++: Advanced F12 Medium+HEPES (6 ml)+Glutamax (5 ml) • Cut tissue with a scissor in small pieces and then mince further with scalpel for 3-5 minutes • Collect all fragments, incubate with 2 ml Collagenase Type 1+2 ml Collagenase type II and transfer to a 6 well plate, • Incubate fragments for 45 min at 37° C. 5% CO2, • Add 5 ml Adv +++ and transfer in to a 50 ml Falcon tube, • Vortex vigorously for 30 seconds, • Let pieces settle down, take supernatant and transfer in to a fresh tube, • Add again 5 ml Adv +++, mix with a pipette, • Let pieces settle down, take supernatant and transfer in to a fresh tube, • Centrifuge for 5 min at 400 rpm, • Discard supernatant, • Prepare 10 ml Adv +++, add 30 μl Y-27632 and 10 μl hEGF (final conc. 10 ng/ml), • Resuspend cell pellet in medium, • Seed cell in a flask, • Incubate at 5% CO2 at 37° C. and grow cells 3-5 days prior to transfer to 3D culture. […]

| Molecule | response to carboplatin treatment (cell viability) [1] | effect of exogenous supplementation on ovarian cancer stem cells [2] |
| --- | --- | --- |
| N.N.O=C([O-])C1(C(=O)[O-])CCC1.[Pt+2] [carboplatin] | differences in responsivness and kinetics; also recorded: individual patient profiles in their response | – |
| B1 | – | detrimental |
